{"source": "paper PMC5320487", "about": "“Intrinsic Peroxidase-like Activity of Ficin” (Scientific Reports, 2017)", "tested_on": "Ficin", "assay": "absorbance at […] nm, steady-state kinetics, Michaelis-Menten fit", "format": "biochemical", "conditions": "peroxidase-like activity; 0.80 mM H2O2, 20 mM phosphate buffer pH 5.0, 35 °C; ping-pong", "data": [{"smiles": "Cc1cc(-c2cc(C)c(N)c(C)c2)cc(C)c1N", "note": "[TMB]", "values": [{"measurement": "Km", "result": "0.19 ± 0.012", "unit": "mM"}]}]}
